System: COG-LL-317
Test: selective drug sensitivity score (sDSS, relative to normal bone marrow) (sDSS (score)); higher = more potent and effective on the cell line relative to normal bone marrow cells
Conditions: 72 h
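Further: ALL cell lines in 384-well plates, five doses spanning 10,000-fold, each plate scaled between vehicle and 100 µmol/L benzalkonium chloride controls, sDSS an adapted area-under-curve metric.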

Structure (SMILES) | selective drug sensitivity score
NC1(c2ccc(-c3nc4ccn5c(=O)[nH]nc5c4cc3-c3ccccc3)cc2)CCC1 [MK-2206] (top concentration 1000 nM) | 3.56
O=C(Nc1cccc(NC(=O)c2cccc(O)c2O)c1)c1cccc(O)c1O [MST-312] (top concentration 10000 nM) | 18.2
CC(=O)O[C@]1(C(C)=O)CC[C@H]2[C@@H]3C=C(C)C4=CC(=O)CC[C@]4(C)[C@H]3CC[C@@]21C [Megestrol_acetate] (top concentration 10000 nM) | -0.58
CO[C@@H]1[C@H](N(C)C(=O)c2ccccc2)C[C@H]2O[C@]1(C)n1c3ccccc3c3c4c(c5c6ccccc6n2c5c31)C(=O)NC4 [Midostaurin] (top concentration 10000 nM) | 8.96
CCCCCCCCCCCCCCCCOP(=O)([O-])OCC[N+](C)(C)C [Miltefosine] (top concentration 100000 nM) | 1.06
Nc1ccccc1NC(=O)c1ccc(CNc2nccc(-c3cccnc3)n2)cc1 [Mocetinostat] (top concentration 10000 nM) | 5.64
CCNC(=O)C[C@@H]1N=C(c2ccc(Cl)cc2)c2cc(OC)ccc2-n2c(C)nnc21 [Molibresib] (top concentration 10000 nM) | 3.2
Nc1ncnc2c1c(-c1cccc(OCc3ccccc3)c1)cn2[C@H]1C[C@@H](CN2CCC2)C1 [NVP-AEW541] (top concentration 10000 nM) | -2.32
CN[C@@H](C)C(=O)N[C@H](C(=O)N1CCC[C@H]1c1nc(C(=O)c2ccc(F)cc2)cs1)C1CCCCC1 [NVP-LCL161] (top concentration 25000 nM) | -2.02

System: SUP-B15
Test: as above
Conditions: 72 h

Structure (SMILES) | selective drug sensitivity score
Nc1ccccc1NC(=O)c1ccc(CNC(=O)OCc2cccnc2)cc1 [Entinostat] (top concentration 10000 nM) | 7.08
C#Cc1cccc(Nc2ncnc3cc(OCCOC)c(OCCOC)cc23)c1 [Erlotinib] (top concentration 10000 nM) | 8.96
O=C(Nc1nc2cccc(-c3ccc(CN4CCS(=O)(=O)CC4)cc3)n2n1)C1CC1 [Filgotinib] (top concentration 10000 nM) | -0.64
C[C@H]1C=C2C(=O)O[C@H]3CC[C@@H](C1)[C@@]23O [Galiellalactone] (top concentration 25000 nM) | 3.46
CN(C)C1CCN(C(=O)c2ccc(NC(=O)Nc3ccc(-c4nc(N5CCOCC5)nc(N5CCOCC5)n4)cc3)cc2)CC1 [Gedatolisib] (top concentration 1000 nM) | 8.36
Nc1ccn([C@@H]2O[C@H](CO)[C@@H](O)C2(F)F)c(=O)n1 [Gemcitabine] (top concentration 1000 nM) | 17.1
COc1cc2c(cc1-c1c(C)noc1C)ncc1[nH]c(=O)n([C@H](C)c3ccccn3)c12 [I-BET151] (top concentration 10000 nM) | 5.96
O=C1CCc2c(Oc3ccc4c(c3)[C@@H]3[C@H](O4)[C@H]3c3nc4cc(C(F)(F)F)ccc4[nH]3)ccnc2N1 [Lifirafenib (BGB-283)] (top concentration 10000 nM) | 17
NC(=O)N1CCC(CC(=O)N2CCC([C@H]3c4ncc(Br)cc4CCc4cc(Cl)cc(Br)c43)CC2)CC1 [Lonafarnib] (top concentration 100000 nM) | 11.9
NC1(c2ccc(-c3nc4ccn5c(=O)[nH]nc5c4cc3-c3ccccc3)cc2)CCC1 [MK-2206] (top concentration 1000 nM) | -0.44
O=C(Nc1cccc(NC(=O)c2cccc(O)c2O)c1)c1cccc(O)c1O [MST-312] (top concentration 10000 nM) | 9.5
CC(=O)O[C@]1(C(C)=O)CC[C@H]2[C@@H]3C=C(C)C4=CC(=O)CC[C@]4(C)[C@H]3CC[C@@]21C [Megestrol_acetate] (top concentration 10000 nM) | 0.32
CO[C@@H]1[C@H](N(C)C(=O)c2ccccc2)C[C@H]2O[C@]1(C)n1c3ccccc3c3c4c(c5c6ccccc6n2c5c31)C(=O)NC4 [Midostaurin] (top concentration 10000 nM) | 8.96
CCCCCCCCCCCCCCCCOP(=O)([O-])OCC[N+](C)(C)C [Miltefosine] (top concentration 100000 nM) | 2.36
Nc1ccccc1NC(=O)c1ccc(CNc2nccc(-c3cccnc3)n2)cc1 [Mocetinostat] (top concentration 10000 nM) | 9.64
CCNC(=O)C[C@@H]1N=C(c2ccc(Cl)cc2)c2cc(OC)ccc2-n2c(C)nnc21 [Molibresib] (top concentration 10000 nM) | 3.2
Nc1ncnc2c1c(-c1cccc(OCc3ccccc3)c1)cn2[C@H]1C[C@@H](CN2CCC2)C1 [NVP-AEW541] (top concentration 10000 nM) | -2.02
CN[C@@H](C)C(=O)N[C@H](C(=O)N1CCC[C@H]1c1nc(C(=O)c2ccc(F)cc2)cs1)C1CCCCC1 [NVP-LCL161] (top concentration 25000 nM) | -3.82

System: KOPN-8
Test: as above
Conditions: 72 h

Structure (SMILES) | selective drug sensitivity score
Nc1ccccc1NC(=O)c1ccc(CNC(=O)OCc2cccnc2)cc1 [Entinostat] (top concentration 10000 nM) | 11.6
C#Cc1cccc(Nc2ncnc3cc(OCCOC)c(OCCOC)cc23)c1 [Erlotinib] (top concentration 10000 nM) | 7.06
O=C(Nc1nc2cccc(-c3ccc(CN4CCS(=O)(=O)CC4)cc3)n2n1)C1CC1 [Filgotinib] (top concentration 10000 nM) | 5.46
C[C@H]1C=C2C(=O)O[C@H]3CC[C@@H](C1)[C@@]23O [Galiellalactone] (top concentration 25000 nM) | 4.16
CN(C)C1CCN(C(=O)c2ccc(NC(=O)Nc3ccc(-c4nc(N5CCOCC5)nc(N5CCOCC5)n4)cc3)cc2)CC1 [Gedatolisib] (top concentration 1000 nM) | 10.1
Nc1ccn([C@@H]2O[C@H](CO)[C@@H](O)C2(F)F)c(=O)n1 [Gemcitabine] (top concentration 1000 nM) | 26.4
COc1cc2c(cc1-c1c(C)noc1C)ncc1[nH]c(=O)n([C@H](C)c3ccccn3)c12 [I-BET151] (top concentration 10000 nM) | 11.8
O=C1CCc2c(Oc3ccc4c(c3)[C@@H]3[C@H](O4)[C@H]3c3nc4cc(C(F)(F)F)ccc4[nH]3)ccnc2N1 [Lifirafenib (BGB-283)] (top concentration 10000 nM) | 13.1
NC(=O)N1CCC(CC(=O)N2CCC([C@H]3c4ncc(Br)cc4CCc4cc(Cl)cc(Br)c43)CC2)CC1 [Lonafarnib] (top concentration 100000 nM) | 12.8
NC1(c2ccc(-c3nc4ccn5c(=O)[nH]nc5c4cc3-c3ccccc3)cc2)CCC1 [MK-2206] (top concentration 1000 nM) | 3.46
O=C(Nc1cccc(NC(=O)c2cccc(O)c2O)c1)c1cccc(O)c1O [MST-312] (top concentration 10000 nM) | 15.2
CC(=O)O[C@]1(C(C)=O)CC[C@H]2[C@@H]3C=C(C)C4=CC(=O)CC[C@]4(C)[C@H]3CC[C@@]21C [Megestrol_acetate] (top concentration 10000 nM) | 3.02
CO[C@@H]1[C@H](N(C)C(=O)c2ccccc2)C[C@H]2O[C@]1(C)n1c3ccccc3c3c4c(c5c6ccccc6n2c5c31)C(=O)NC4 [Midostaurin] (top concentration 10000 nM) | 12.1
CCCCCCCCCCCCCCCCOP(=O)([O-])OCC[N+](C)(C)C [Miltefosine] (top concentration 100000 nM) | 7.56
Nc1ccccc1NC(=O)c1ccc(CNc2nccc(-c3cccnc3)n2)cc1 [Mocetinostat] (top concentration 10000 nM) | 9.24
CCNC(=O)C[C@@H]1N=C(c2ccc(Cl)cc2)c2cc(OC)ccc2-n2c(C)nnc21 [Molibresib] (top concentration 10000 nM) | 10.6
Nc1ncnc2c1c(-c1cccc(OCc3ccccc3)c1)cn2[C@H]1C[C@@H](CN2CCC2)C1 [NVP-AEW541] (top concentration 10000 nM) | -2.62
CN[C@@H](C)C(=O)N[C@H](C(=O)N1CCC[C@H]1c1nc(C(=O)c2ccc(F)cc2)cs1)C1CCCCC1 [NVP-LCL161] (top concentration 25000 nM) | 0.28

From the supplement of paper PMC8967900
